PubChem BioAssay (NCI)
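Values below derive from 48-hour exposures of cells grown in 96-well plates, with endpoints linearly interpolated between the two concentrations bracketing the appropriate inhibition level. TGI: concentration producing complete growth inhibition.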

Legend:
Experiment in all cases: inhibition of tumour cell growth, NCI panel, 48 h
SW-620 colon = tested on: SW-620 colon
HOP-62 NSCLC = tested on: HOP-62 NSCLC
OVCAR-5 ovarian = tested on: OVCAR-5 ovarian
MOLT-4 leukemia = tested on: MOLT-4 leukemia
BT-549 breast = tested on: BT-549 breast
UACC-257 melanoma = tested on: UACC-257 melanoma
T-47D breast = tested on: T-47D breast
HT29 colon = tested on: HT29 colon
NCI-H522 lung = tested on: NCI-H522 lung
MDA-N = tested on: MDA-N
SK-MEL-28 melanoma = tested on: SK-MEL-28 melanoma

Compound | TGI (SW-620 colon) | TGI (HOP-62 NSCLC) | TGI (OVCAR-5 ovarian) | TGI (MOLT-4 leukemia) | TGI (BT-549 breast) | TGI (UACC-257 melanoma) | TGI (T-47D breast) | TGI (HT29 colon) | TGI (NCI-H522 lung) | TGI (MDA-N) | TGI (SK-MEL-28 melanoma)
O=c1ccn(CC2(CO)CCCC2)c(=O)[nH]1 | > 100 µM | > 100 µM | > 100 µM | > 100 µM | > 100 µM | > 100 µM | > 100 µM | > 100 µM | > 100 µM | > 100 µM | > 100 µM
COc1cc2nc(Nc3cccc(Br)c3)nc(Nc3cccc(Br)c3)c2cc1OC | 45.8 µM | 33.6 µM | 70.9 µM | 47.2 µM | 30.7 µM |  | 43.7 µM | 34.8 µM | 32.4 µM | 32.8 µM | 33.5 µM
CCN(CC)CCC(=O)c1ccc(Sc2ccc(F)cc2)cc1 | 41.2 µM | 41.4 µM | 39.3 µM | 33.5 µM | 31.6 µM | 31 µM | 42.9 µM | 85.2 µM | 35.8 µM | 49 µM | 34.3 µM
C=CCc1[nH]c2c(OCc3ccccc3)cc(N(CC=C)C(C)=O)cc2c1C | 32.2 µM | 36.7 µM | 27.2 µM | 30.7 µM | 29.3 µM | 30.6 µM | 26.4 µM | 20.5 µM | 26.5 µM | 27.9 µM | 33.5 µM
CCN(CC)C(=O)Cn1c(-c2ccccc2)cc2ccccc21 | > 100 µM | > 100 µM | > 100 µM | 42.7 µM | 94.5 µM | > 100 µM | > 100 µM | > 100 µM | > 100 µM | > 100 µM | > 100 µM
COC(=O)CCC(C)[C@H]1CCC2C3C(C[C@H](OC(C)=O)[C@@]21C)[C@@]1(C)CCC2(C[C@H]1C[C@H]3OC(C)=O)OOC1(CCCC1)OO2 (some centres undefined) | > 100 µM | 29.9 µM | > 100 µM | > 100 µM | > 100 µM | > 100 µM | 75 µM | > 100 µM | > 100 µM | > 100 µM | > 100 µM
Cn1c(NNc2ccccc2)cc(=O)[nH]c1=O | > 100 µM | > 100 µM | > 100 µM | > 100 µM | > 100 µM | > 100 µM | > 100 µM | > 100 µM | 40.5 µM | 45.4 µM | > 100 µM
COc1cc(=O)c2c(O)c3c(O)oc(C)cc3c(OC)c2c1 | > 100 µM | 76.1 µM | 86.6 µM | 73.7 µM | > 100 µM | > 100 µM | 90.8 µM | 40.7 µM | > 100 µM | 80.6 µM | 60 µM
O=Cc1c2n(c3ccccc13)N[C@@](Cc1ccc(O)cc1)(C(=O)O)C2 | > 100 µM | > 100 µM | > 100 µM | > 100 µM | > 100 µM | 86.9 µM | > 100 µM | > 100 µM | > 100 µM | > 100 µM | > 100 µM
CCCC(=O)Nc1cc(/C=C/C(=O)N2CC(CCl)c3c2cc(OCc2ccccc2)c2[nH]cc(C)c32)n(C)c1 (centres undefined) | > 25 µM | 0.453 µM | 1.22 µM | 0.61 µM | 3.14 µM | 0.868 µM | 1.7 µM | 0.488 µM | 0.0267 µM | 1.67 µM | 1.54 µM
CCOc1ccc2nc3nc(=O)[nH]c(C)c3c(NCCCN(CC)CC)c2c1 | > 100 µM | > 100 µM | > 100 µM | > 100 µM | > 100 µM | > 100 µM | > 100 µM | > 100 µM | > 100 µM | > 100 µM | > 100 µM
c1cnn(C23C4C5C6C4C2C6C53)c1 (centres undefined) | > 100 µM | > 100 µM | > 100 µM | > 100 µM | > 100 µM | > 100 µM | > 100 µM | > 100 µM | > 100 µM | > 100 µM | > 100 µM
CCCCCC1CC=CC(=O)O1 (centres undefined) | 29.1 µM | 18.5 µM | 21.4 µM | > 100 µM | 33.7 µM | 32.9 µM | 62.4 µM | 17.8 µM | 9.71 µM | 38.2 µM | 18.5 µM
Cc1c2ccnc(C(=O)NCCN(C)C)c2cc2c3cc(O)ccc3n(C)c12 | 4.36 µM | 2.16 µM | 6.29 µM | 0.0147 µM | 10.7 µM | 4.74 µM | 2.83 µM | 3.87 µM | 1.02 µM | 1.93 µM | 2.14 µM
N#C[C@H](C(=O)c1ccccc1F)c1nc2ccccc2s1 | > 100 µM | > 100 µM | > 100 µM | 96.1 µM | > 100 µM | > 100 µM | > 100 µM | > 100 µM | 69.3 µM | > 100 µM | > 100 µM
CC1=NN(c2nc(N)nc(CBr)n2)C(C)(C)C1 | 12.7 µM | 35.1 µM | 13.8 µM | 4.72 µM | 28.9 µM | 25.2 µM | 18 µM | 18.6 µM | 1.01 µM | 25.5 µM | 27.2 µM
CCCC(=O)NC(Nc1cc(C)ccn1)(C(=O)OCC)C(F)(F)F (centres undefined) | > 100 µM | > 100 µM | > 100 µM | > 100 µM | > 100 µM | > 100 µM | > 100 µM | > 100 µM | > 100 µM | > 100 µM | > 100 µM
COc1ccc(OC)c(CSc2ccc(OC)c(OC)c2)c1 | > 100 µM | > 100 µM | > 100 µM | > 100 µM | > 100 µM | > 100 µM | > 30.5 µM | > 100 µM | > 100 µM | > 100 µM | > 100 µM
CCOc1ccc(N/C(=C(/C(Cl)=C(/Cl)Nc2ccccc2)[N+](=O)[O-])n2nnc3ccccc32)cc1 |  | 70.3 µM | > 100 µM | > 100 µM | 28.7 µM | > 100 µM | > 100 µM |  | 39.5 µM | 40.3 µM | 54.5 µM
NC(CSCc1ccc(I)cc1)C(=O)O (centres undefined) | > 100 µM | > 100 µM | > 100 µM | > 100 µM | > 100 µM | > 100 µM | > 100 µM | > 100 µM | > 100 µM | > 100 µM | > 100 µM
C(/C=C/c1ccccc1)=Nc1ccc2c(c1)Cc1ccccc1-2 | > 100 µM | > 100 µM | > 100 µM | 95 µM | > 100 µM |  | > 100 µM | > 100 µM | > 100 µM | > 100 µM | > 100 µM
CC1=NN(C(=O)c2ccccc2O)C(=O)/C1=C/c1cccc(O)c1 | > 100 µM |  | > 100 µM | > 100 µM | > 100 µM | > 100 µM | > 100 µM | > 100 µM | > 30.7 µM | > 100 µM | > 100 µM
CCc1c(CN)c(CC)c(CNC2=NCCN2)c(CC)c1CNC1=NCCN1 | > 100 µM | > 100 µM | > 100 µM | > 100 µM | > 100 µM | > 100 µM | > 100 µM | > 100 µM | > 100 µM | > 100 µM | > 100 µM
Cc1ccc(S(=O)(=O)N2CCN(S(=O)(=O)c3ccc(C)cc3)CCN(S(=O)(=O)c3ccc(C)cc3)Cc3cc(C#N)c(C#N)cc3CN(S(=O)(=O)c3ccc(C)cc3)CC2)cc1 | > 100 µM | > 100 µM | > 100 µM | > 100 µM | > 100 µM | > 100 µM | > 100 µM | > 100 µM | > 100 µM | > 100 µM | > 100 µM
COc1cc(C(=O)/C=C/c2ccc(OCCSCCCCCCCCCCSCCOc3ccc(/C=C/C(=O)c4cc(OC)c(OC)c(OC)c4)cc3)cc2)cc(OC)c1OC | > 100 µM | > 100 µM | > 100 µM | > 100 µM | > 100 µM |  | > 100 µM | > 100 µM | > 100 µM | > 100 µM | > 100 µM
Cn1c2ccccc2n2c3ncccc3c(=NCCCC(=O)O)c(C#N)c12 | > 100 µM | > 100 µM | > 100 µM | > 100 µM | > 100 µM |  | > 100 µM | > 100 µM | > 100 µM | > 100 µM | > 100 µM
O=P1(Oc2ccccc2)N=P(c2ccccc2)(c2ccccc2)C=C(c2ccc(Cl)cc2)N1 (centres undefined) | 29.5 µM | 33.6 µM | 28.2 µM | 22.4 µM | 29.6 µM | 30.8 µM | 24.7 µM | 15.5 µM | 24.2 µM | 22.8 µM | 
N#Cc1cnc(-n2[nH]c3c(c2=O)CCCC3)[nH]c1=O | > 100 µM |  | > 100 µM | > 100 µM | > 100 µM | > 100 µM | > 100 µM | > 100 µM | > 100 µM | > 100 µM | > 100 µM
N#CC(N)c1ccc(OCCCCCCCCCCOc2ccc(C(N)C#N)cc2)cc1 (centres undefined) | > 100 µM |  | > 100 µM | > 100 µM | > 100 µM | > 100 µM | > 100 µM | > 100 µM | > 100 µM | > 100 µM | > 100 µM
CCCCc1ccc(Nc2nc(Cl)c3ncn(COCCOC(C)=O)c3n2)cc1 | 43.8 µM | 30.8 µM | 35.5 µM | 61.8 µM | 35.8 µM | 36.4 µM | 65.9 µM | 32.2 µM | 42.9 µM | 37 µM | 
